PubChem BioAssay (NCI)
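Protocol summary: plate cells (96-well), add compound at 5 concentrations, incubate 48 h, interpolate endpoints linearly. TGI is the concentration that stops growth completely.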

tested on: MDA-MB-435; test: NCI anticancer screen, dose series, 48 h

SMILES	TGI [µM]
Cn1c2ccc([N+](=O)[O-])cc2c(=O)n1Cc1ccccc1F	> 100
Cn1c(=O)c2c3ccccc3n(C)c2n(C)c1=O	> 100
CN(Cc1cnc2nc(N)nc(N)c2n1)c1ccc(C(=O)NCCS(=O)(=O)O)cc1	> 100
COc1cc(NC(C)c2ccc3c(c2)OCCO3)cc(OC)c1OC (stereo not drawn)	32
Cc1cccc2oc3c(CC(=O)O)cccc3c(=O)c12	> 100
N#CC(C#N)=C1C(=Cc2ccc(OCCCCCCCCCCSSCCCCCCCCCCOc3ccc(C=C4C(=C(C#N)C#N)c5ccccc5C4=C(C#N)C#N)cc3)cc2)C(=C(C#N)C#N)c2ccccc21	> 100
O=c1c2cccnc2n2n1Cc1ccccc1C2	> 100
S=c1nc2sc3c(c2c(Nc2ccc(Cl)cc2)[nH]1)CCCC3	> 100
CSC1=C(C#N)C(=S)N=C(N)C1C(=O)Nc1ccc(C)cc1 (stereo not drawn)	> 100
O=c1ccn([C@@H]2C[C@H]2CO)c(=O)[nH]1	> 100
C=C(C)[C@@H]1CCC2=C[C@@H](OC2=O)[C@@H](C(=C)C)C2=CC(C(=O)O)=C(C1)O2	> 100
CSC(=N/C=C/c1ccccc1)SC	> 100
c1ccc(C(C2=Nc3cccc4cccc(c34)N2)c2ccccc2)cc1	66.1
COC(=O)NC(Nc1ccccn1)(C(F)(F)F)C(F)(F)F	> 100
O=C(OCc1ccccc1)N(CCCCN(CCCNC(=O)C(F)(F)F)C(=O)OCc1ccccc1)CCCNC(=O)C(F)(F)F	> 100
Nc1ncc(Br)c(NCC2(CO)CCC2)n1	> 100
C=CCC1(O)CC(n2cc(C)c(=O)[nH]c2=O)OC1CO[Si](C)(C)C(C)(C)C (stereo not drawn)	> 100
NC(=O)C(=CNC(N)=S)C(N)=O	> 100

tested on: MDA-N; test: NCI anticancer screen, dose series, 48 h

SMILES	TGI [µM]
CCCN(CCC)CCc1ccc(OC2=CCN(C)CC2)cc1	> 100
O=C1OCN(c2ccccc2)C12CCN(Cc1ccccc1)CC2	62.3
Cn1c2ccc([N+](=O)[O-])cc2c(=O)n1Cc1ccccc1F	> 100
Cn1c(=O)c2c3ccccc3n(C)c2n(C)c1=O	> 100
CN(Cc1cnc2nc(N)nc(N)c2n1)c1ccc(C(=O)NCCS(=O)(=O)O)cc1	> 100
COc1cc(NC(C)c2ccc3c(c2)OCCO3)cc(OC)c1OC (stereo not drawn)	30.2
Cc1cccc2oc3c(CC(=O)O)cccc3c(=O)c12	> 100
N#CC(C#N)=C1C(=Cc2ccc(OCCCCCCCCCCSSCCCCCCCCCCOc3ccc(C=C4C(=C(C#N)C#N)c5ccccc5C4=C(C#N)C#N)cc3)cc2)C(=C(C#N)C#N)c2ccccc21	88.3
O=c1c2cccnc2n2n1Cc1ccccc1C2	> 100
S=c1nc2sc3c(c2c(Nc2ccc(Cl)cc2)[nH]1)CCCC3	> 100
CSC1=C(C#N)C(=S)N=C(N)C1C(=O)Nc1ccc(C)cc1 (stereo not drawn)	> 100
O=c1ccn([C@@H]2C[C@H]2CO)c(=O)[nH]1	> 100
C=C(C)[C@@H]1CCC2=C[C@@H](OC2=O)[C@@H](C(=C)C)C2=CC(C(=O)O)=C(C1)O2	> 100
CSC(=N/C=C/c1ccccc1)SC	> 100
c1ccc(C(C2=Nc3cccc4cccc(c34)N2)c2ccccc2)cc1	49.3
COC(=O)NC(Nc1ccccn1)(C(F)(F)F)C(F)(F)F	> 100
O=C(OCc1ccccc1)N(CCCCN(CCCNC(=O)C(F)(F)F)C(=O)OCc1ccccc1)CCCNC(=O)C(F)(F)F	> 100
Nc1ncc(Br)c(NCC2(CO)CCC2)n1	> 100
C=CCC1(O)CC(n2cc(C)c(=O)[nH]c2=O)OC1CO[Si](C)(C)C(C)(C)C (stereo not drawn)	> 100
NC(=O)C(=CNC(N)=S)C(N)=O	> 100

tested on: TK-10 renal; test: NCI anticancer screen, dose series, 48 h

SMILES	TGI [µM]
CCCN(CCC)CCc1ccc(OC2=CCN(C)CC2)cc1	> 100
O=C1OCN(c2ccccc2)C12CCN(Cc1ccccc1)CC2	> 100
Cn1c2ccc([N+](=O)[O-])cc2c(=O)n1Cc1ccccc1F	> 100
Cn1c(=O)c2c3ccccc3n(C)c2n(C)c1=O	> 100
CN(Cc1cnc2nc(N)nc(N)c2n1)c1ccc(C(=O)NCCS(=O)(=O)O)cc1	> 100
COc1cc(NC(C)c2ccc3c(c2)OCCO3)cc(OC)c1OC (stereo not drawn)	> 100
Cc1cccc2oc3c(CC(=O)O)cccc3c(=O)c12	> 100
N#CC(C#N)=C1C(=Cc2ccc(OCCCCCCCCCCSSCCCCCCCCCCOc3ccc(C=C4C(=C(C#N)C#N)c5ccccc5C4=C(C#N)C#N)cc3)cc2)C(=C(C#N)C#N)c2ccccc21	> 100
O=c1c2cccnc2n2n1Cc1ccccc1C2	> 100
S=c1nc2sc3c(c2c(Nc2ccc(Cl)cc2)[nH]1)CCCC3	> 100
CSC1=C(C#N)C(=S)N=C(N)C1C(=O)Nc1ccc(C)cc1 (stereo not drawn)	> 100
O=c1ccn([C@@H]2C[C@H]2CO)c(=O)[nH]1	> 100
C=C(C)[C@@H]1CCC2=C[C@@H](OC2=O)[C@@H](C(=C)C)C2=CC(C(=O)O)=C(C1)O2	> 100
c1ccc(C(C2=Nc3cccc4cccc(c34)N2)c2ccccc2)cc1	> 100
COC(=O)NC(Nc1ccccn1)(C(F)(F)F)C(F)(F)F	> 100
O=C(OCc1ccccc1)N(CCCCN(CCCNC(=O)C(F)(F)F)C(=O)OCc1ccccc1)CCCNC(=O)C(F)(F)F	> 100
Nc1ncc(Br)c(NCC2(CO)CCC2)n1	> 100

tested on: DU-145 prostate; test: NCI anticancer screen, dose series, 48 h

SMILES	TGI [µM]
CCCN(CCC)CCc1ccc(OC2=CCN(C)CC2)cc1	> 100
O=C1OCN(c2ccccc2)C12CCN(Cc1ccccc1)CC2	> 100
Cn1c2ccc([N+](=O)[O-])cc2c(=O)n1Cc1ccccc1F	> 100
Cn1c(=O)c2c3ccccc3n(C)c2n(C)c1=O	> 100
CN(Cc1cnc2nc(N)nc(N)c2n1)c1ccc(C(=O)NCCS(=O)(=O)O)cc1	> 100
COc1cc(NC(C)c2ccc3c(c2)OCCO3)cc(OC)c1OC (stereo not drawn)	> 100
Cc1cccc2oc3c(CC(=O)O)cccc3c(=O)c12	> 100
N#CC(C#N)=C1C(=Cc2ccc(OCCCCCCCCCCSSCCCCCCCCCCOc3ccc(C=C4C(=C(C#N)C#N)c5ccccc5C4=C(C#N)C#N)cc3)cc2)C(=C(C#N)C#N)c2ccccc21	47.7
O=c1c2cccnc2n2n1Cc1ccccc1C2	> 100
S=c1nc2sc3c(c2c(Nc2ccc(Cl)cc2)[nH]1)CCCC3	> 100
CSC1=C(C#N)C(=S)N=C(N)C1C(=O)Nc1ccc(C)cc1 (stereo not drawn)	> 100
O=c1ccn([C@@H]2C[C@H]2CO)c(=O)[nH]1	> 100
C=C(C)[C@@H]1CCC2=C[C@@H](OC2=O)[C@@H](C(=C)C)C2=CC(C(=O)O)=C(C1)O2	> 100
CSC(=N/C=C/c1ccccc1)SC	> 100
c1ccc(C(C2=Nc3cccc4cccc(c34)N2)c2ccccc2)cc1	91.3
COC(=O)NC(Nc1ccccn1)(C(F)(F)F)C(F)(F)F	> 100
O=C(OCc1ccccc1)N(CCCCN(CCCNC(=O)C(F)(F)F)C(=O)OCc1ccccc1)CCCNC(=O)C(F)(F)F	> 100
Nc1ncc(Br)c(NCC2(CO)CCC2)n1	> 100
C=CCC1(O)CC(n2cc(C)c(=O)[nH]c2=O)OC1CO[Si](C)(C)C(C)(C)C (stereo not drawn)	> 100
NC(=O)C(=CNC(N)=S)C(N)=O	> 100

tested on: EKVX NSCLC; test: NCI anticancer screen, dose series, 48 h

SMILES	TGI [µM]
CCCN(CCC)CCc1ccc(OC2=CCN(C)CC2)cc1	> 100
O=C1OCN(c2ccccc2)C12CCN(Cc1ccccc1)CC2	> 100
Cn1c2ccc([N+](=O)[O-])cc2c(=O)n1Cc1ccccc1F	> 100
Cn1c(=O)c2c3ccccc3n(C)c2n(C)c1=O	> 100
CN(Cc1cnc2nc(N)nc(N)c2n1)c1ccc(C(=O)NCCS(=O)(=O)O)cc1	> 100
COc1cc(NC(C)c2ccc3c(c2)OCCO3)cc(OC)c1OC (stereo not drawn)	> 100
Cc1cccc2oc3c(CC(=O)O)cccc3c(=O)c12	> 100
N#CC(C#N)=C1C(=Cc2ccc(OCCCCCCCCCCSSCCCCCCCCCCOc3ccc(C=C4C(=C(C#N)C#N)c5ccccc5C4=C(C#N)C#N)cc3)cc2)C(=C(C#N)C#N)c2ccccc21	43.1
O=c1c2cccnc2n2n1Cc1ccccc1C2	> 100
S=c1nc2sc3c(c2c(Nc2ccc(Cl)cc2)[nH]1)CCCC3	> 100
CSC1=C(C#N)C(=S)N=C(N)C1C(=O)Nc1ccc(C)cc1 (stereo not drawn)	> 100
O=c1ccn([C@@H]2C[C@H]2CO)c(=O)[nH]1	> 100
C=C(C)[C@@H]1CCC2=C[C@@H](OC2=O)[C@@H](C(=C)C)C2=CC(C(=O)O)=C(C1)O2	> 100
CSC(=N/C=C/c1ccccc1)SC	> 100
c1ccc(C(C2=Nc3cccc4cccc(c34)N2)c2ccccc2)cc1	80.7
COC(=O)NC(Nc1ccccn1)(C(F)(F)F)C(F)(F)F	> 100
O=C(OCc1ccccc1)N(CCCCN(CCCNC(=O)C(F)(F)F)C(=O)OCc1ccccc1)CCCNC(=O)C(F)(F)F	> 100
Nc1ncc(Br)c(NCC2(CO)CCC2)n1	> 100
